Reference: paper PMC5402304, “Oxoaporphine Metal Complexes (Co^II, Ni^II, Zn^II) with High Antitumor Activity by Inducing Mitochondria-Mediated Apoptosis and S-phase Arrest in HepG2” (Scientific Reports, 2017)

Experiments:
[1] = Solution stability by HPLC; assay type: physicochemical; settings: TBS; 0 and 24 h; mobile phase methanol/H2O 80/20
Protocol: The stability of 1–3 in Tris-HCl buffer solution (TBS, pH = 7.35, containing 1% DMSO) for 0, 12 and 48 h were primarily analyzed by means of UV-Vis spectroscopy, as shown in Figure S1.
The stability of 1–3 under physiological conditions ([…] buffer solution with pH value of 7.35, containing 1% DMSO), was carried out using UV-vis spectroscopy and HPLC. 1–3 were dissolved in DMSO at 1 × 10^−3 M, and then diluted by buffer solution. The UV-vis absorbance of these complexes at 0 h, 12 h and 48 h were measured, respectively. The solution stability of 3 was further confirmed by HPLC experiments. 3 in aqueous solution at 1.0 mg · mL^−1 was analyzed by HPLC at 0 h and 24 h respectively, with reversed-phase C18 column and methol/H2O (80:20) as mobile phase.

HepG2 = assay: Cell apoptosis assay by flow cytometry, Annexin V-FITC/PI; assay type: cell-based, human; settings: HepG2, 5.0 μM, 24 h
Protocol: The quantitative analysis of apoptotic HepG2 induced by 1–3 (1.0, 2.0 and 5.0 μM) and their corresponding metal salts (5.0 μM) after 24 h treatment, were investigated by flow cytometry and Annexin V-FITC/PI double staining. As depicted in Figs 7 and S6, 1–3 caused a significant increase in apoptotic cells comparing to the untreated cells.
Cell cycle progression and apoptosis were determined by flow cytometric analysis. (a) Cell cycle arrest assay: HepG2 cells in their logarithmic phase were plated into 50 mL plates at a final density of 5−6 × 10^6 cells/well overnight, then they were treated with various doses (0.25, 0.5 and 1.0 μM) of 1–3 for another 24 h. Cells were trypsinized, collected, and fixed in ice-cold 75% ethanol at −20 °C overnight. After centrifugation, the fixed cells were rinsed with ice-cold phosphate buffered saline (PBS), and resuspended in 0.5 mL of PBS containing 100 μg/mL RNase, 50 μg/mL propidium iodide (PI) in the dark for 5−10 min. The cell cycle distribution was analyzed by FACS Calibur flow cytometer (BD) and calculated using ModFIT LT software. (b) Apoptosis assay: 1 × 10^5 HepG2 cells were plated in 6-well plates, after incubation for 24 h with complexes 1–3 at 1.0, 2.0 and 5.0 μM, cells were collected, and Apoptosis Detection kit FITC Annexin V was used to analyze the cell apoptosis according to the manufacturer’s instructions.

caspase-9 = assay: Caspase-9 activation by flow cytometry (CaspGLOW); assay type: cell-based, human; settings: HepG2, 1.0 μM, 24 h; control 1.9%
Protocol: Caspase family is closely related to the cell apoptosis via the mitochondrial pathway, especially caspases-3, -8 and -9. To better understand the antitumor mechanisms, it needs to confirm whether caspase-3, -8 and -9 are activated when the tumor cells are treated with 1–3.
The measurement of caspase-3, -8 and -9’s activities was performed by CaspGLOW fluorescein active caspase-3, -8 and -9 staining kit. HepG2 cells were treated with 1 μM 1–3 for 24 h, harvested at a density of 1 × 10^6 cells/mL, and then suspended in 300 μL volume with PBS. To the suspension, 1 μL of caspase-3 inhibitor (FITC-DEVD-FMK), caspase-8 inhibitor (FITC-IETD-FMK) or caspase-9 inhibitor (FITC-LEHD-FMK) was consequently added and incubated for 1 h at 37 °C in 5% CO2 incubator. The cells were then examined by a FACSAria II flow cytometer equipped with a 488 nm argon laser. The results were represented as the percent change on the activity compared with the control.

T-24 = assay: MTT cytotoxicity assay, T-24; assay type: cell-based, human
Protocol: The in vitro cytotoxicity of OD, 1–3 and the corresponding metal salts were determined by MTT assay towards a panel of human tumor cells including HepG2, T-24, BEL-7404, MGC80-3, SK-OV-3/DDP and normal HL-7702 cells. As the positive control, cisplatin was dissolved at a concentration of 1 mM in 0.154 M NaCl[32].
The human tumor cell lines (BEL-7404, HepG2, MGC80–3, T-24, SK-OV-3/DDP and HeLa cells) and the human normal liver cell line HL-7702 were obtained from Shanghai Cell Bank in Chinese Academy of Sciences. Cells were cultured in Dulbecco’s modified Eagle’s medium (DMEM) or RPMI-1640 medium, which supplemented with 10% fetal bovine serum (FBS) and 100 U/mL penicillin and streptomycin. Cells were cultured at 37 °C in a humidified atmosphere with 5% CO2/95% air. Tested compounds (2.0 mM) were prepared as DMSO stock solution before they were diluted to working concentrations by PBS buffer (containing 0.5% DMSO), while cisplatin dissolved in 0.9% sodium chloride solution was used as positive controls.
Cells in their logarithmic phase were seeded in 96-well plates with 5.5 × 10^3/180 μL per well for 24 h. Then 20 μL of compounds at various concentrations were added to each well to achieve final concentrations of 1.25, 2.5, 5.0, 10.0, and 20.0 μM. All the cells were incubated with test compounds for another 48 h before MTT assay. Control wells contained media with 0.5% DMSO. After 48 h of cultivation, 10 μL of MTT (5 mg/mL in PBS) was added to each well, and cells were incubated at 37 °C for 6 h. The contents in the wells were pipetted out carefully, and the formazan crystals formed were dissolved in 100 μL of DMSO, and the absorbance was measured by enzyme labeling instrument with 490 nm/630 nm double wavelength measurement. The IC50 value was defined as a drug concentration killing 50% cells in comparison with untreated controls, which was calculated by the Bliss method (n = 5). All tests were repeated in at least three independent trials.

With [Zn(OD)2(H2O)2] (ClO4)2 [Complex 3] the “stability in solution (HPLC chromatograms)” value [1] was “no obvious changes of HPLC chromatograms”, the “population of apoptotic cells” value (HepG2) was 25.3% and the “proportion of activated caspase-9” value (caspase-9) was 32.6%. It also gave an inhibitive ratio (T-24; T-24, 20 μmol/L, 48 h) of 84.16±0.76% and an IC50 (T-24; T-24, 48 h, MTT) of 510 ± 170 nM.
